# Experimental data from ChEMBL document CHEMBL3259572, “Euodenine A: a small-molecule agonist of human TLR4” (J Med Chem, 2014).
# Active and inactive are the calls of the source. No cut-off for these calls is given here.
# Legend:
# Format in all cases: cell-based
# Toll-like receptor 4 [1] = molecular target: T1, Toll-like receptor 4 (Homo sapiens, UniProt O00206); test: Intrinsic activity at human recombinant TLR4 expressed in HEK293 cells by SEAP reporter assay relative to LPS
# Toll-like receptor 4 [2] = molecular target: T1, Toll-like receptor 4; test: Agonist activity at human recombinant TLR4 expressed in HEK293 cells by SEAP reporter assay
# Toll-like receptor 4 [3] = molecular target: T1, Toll-like receptor 4; test: Agonist activity at human recombinant TLR4 expressed in HEK293 cells at 71.5 uM by SEAP reporter assay
# Toll-like receptor 4 [4] = molecular target: T1, Toll-like receptor 4; test: Agonist activity at human recombinant TLR4 expressed in HEK293 cells at 60 uM by SEAP reporter assay
# PBMC = test: Cytotoxicity against PHA-stimulated human PBMC assessed as reduction in cell viability at 20 uM by WST-1 cell proliferation assay
# [5] = Cytotoxicity against PHA-stimulated human PBMC assessed as reduction in cell viability at 50 uM by WST-1 cell proliferation assay
# Toll-like receptor 4 [6] = molecular target: T1, Toll-like receptor 4; test: Agonist activity at human recombinant TLR4 expressed in HEK293 cells at 333 uM by SEAP reporter assay
# Toll-like receptor 4 [7] = molecular target: T1, Toll-like receptor 4; test: Agonist activity at human recombinant TLR4 expressed in HEK293 cells at 25 uM by SEAP reporter assay
# Toll-like receptor 4 [8] = molecular target: T1, Toll-like receptor 4; test: Agonist activity at human recombinant TLR4 expressed in HEK293 cells at 300 uM by SEAP reporter assay
# Toll-like receptor 4 [9] = molecular target: T1, Toll-like receptor 4; test: Agonist activity at human recombinant TLR4 expressed in HEK293 cells at 30 uM by SEAP reporter assay
# T1 sequence (O00206 whole entry): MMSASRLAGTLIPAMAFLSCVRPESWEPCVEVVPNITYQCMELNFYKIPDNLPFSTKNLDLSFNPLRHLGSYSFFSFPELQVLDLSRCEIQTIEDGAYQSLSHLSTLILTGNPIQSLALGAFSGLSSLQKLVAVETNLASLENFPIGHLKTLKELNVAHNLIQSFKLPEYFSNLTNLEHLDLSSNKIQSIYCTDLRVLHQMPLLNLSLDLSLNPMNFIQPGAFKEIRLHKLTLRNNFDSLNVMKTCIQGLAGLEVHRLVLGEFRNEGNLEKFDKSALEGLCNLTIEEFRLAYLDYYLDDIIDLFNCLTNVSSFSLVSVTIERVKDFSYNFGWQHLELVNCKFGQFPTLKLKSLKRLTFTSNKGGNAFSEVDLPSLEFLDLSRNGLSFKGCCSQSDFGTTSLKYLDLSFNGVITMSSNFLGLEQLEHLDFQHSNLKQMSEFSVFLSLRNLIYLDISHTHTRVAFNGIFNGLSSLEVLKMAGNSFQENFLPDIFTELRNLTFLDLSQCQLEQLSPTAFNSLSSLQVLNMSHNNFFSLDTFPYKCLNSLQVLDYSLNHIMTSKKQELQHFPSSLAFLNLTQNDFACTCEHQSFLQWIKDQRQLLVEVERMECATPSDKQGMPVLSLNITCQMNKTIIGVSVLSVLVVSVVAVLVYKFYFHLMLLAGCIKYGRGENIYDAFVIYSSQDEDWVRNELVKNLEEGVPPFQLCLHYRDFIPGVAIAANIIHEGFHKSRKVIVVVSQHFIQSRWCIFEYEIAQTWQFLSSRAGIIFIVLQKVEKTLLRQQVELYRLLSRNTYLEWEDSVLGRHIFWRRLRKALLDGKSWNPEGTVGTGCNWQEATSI
Intrinsic activity (Toll-like receptor 4 [1]),EC50 (Toll-like receptor 4 [2]),Compound,also measured
0.69,2 µM,CCCC[C@@H]1[C@@H](c2cc(OC)c(OC)c(OC)c2)[C@H]2c3c(c4ccccc4[nH]c3=O)OC(C)(C)[C@@H]12,
0.46,0.5 µM,COc1ccc([C@H]2[C@H]3c4c(c5ccccc5[nH]c4=O)OC(C)(C)[C@H]3[C@@H]2C(C)C)cc1OCCO,
0.64,2.5 µM,COc1ccc([C@@H]2[C@@H](C)[C@H]3[C@@H]2c2c(c4ccccc4n(C)c2=O)OC3(C)C)cc1OC,
1.01,1.2 µM,CCCC[C@@H]1[C@@H](c2ccc(OC)c(OC)c2)[C@H]2c3c(c4ccccc4[nH]c3=O)OC(C)(C)[C@@H]12,
1.01,1.2 µM,CC[C@@H]1[C@@H](c2ccc(OC)c(OC)c2)[C@H]2c3c(c4ccccc4[nH]c3=O)OC(C)(C)[C@@H]12,
,,C[C@@H]1[C@@H](c2ccccc2)[C@H]2c3c(c4ccccc4[nH]c3=O)OC(C)(C)[C@@H]12,Activity (Toll-like receptor 4 [3]): inactive
,,CCC[C@]1(c2cc(OC)c(OC)c(OC)c2)O[C@H]2c3c(c4ccccc4[nH]c3=O)OC(C)(C)[C@H]2O1,Activity (Toll-like receptor 4 [4]): inactive
0.2,2 µM,COc1ccc([C@H]2[C@H]3c4c(c5ccccc5[nH]c4=O)OC(C)(C)[C@H]3[C@@H]2C(C)C)cc1CCl,
0.9,0.39 µM,COc1ccc([C@H]2[C@H]3c4c(c5ccccc5[nH]c4=O)OC(C)(C)[C@H]3[C@@H]2C2CCCC2)cc1OC,
0.47,2 µM,COc1ccc([C@H]2[C@H]3c4c(c5ccccc5[nH]c4=O)OC(C)(C)[C@H]3[C@@H]2C(C)C)cc1Cl,
,> 10 µM,COc1ccc([C@H]2[C@H]3c4c(c5ccccc5[nH]c4=O)OC(C)(C)[C@H]3[C@@H]2C(C)C)cc1OC(C)=O,
0.29,3.1 µM,CC[C@@H]1[C@@H](c2ccc(OC)c(OC)c2)[C@H]2c3c(c4cc(C)ccc4n(C)c3=O)OC(C)(C)[C@@H]12,
0.19,3.9 µM,COc1ccc([C@H]2[C@H]3c4c(c5ccccc5[nH]c4=O)OC(C)(C)[C@H]3[C@@H]2C2CC2)cc1OCCCN1CCOCC1,
0.9,1 µM,COc1ccc([C@H]2[C@H]3c4c(c5ccccc5[nH]c4=O)OC(C)(C)[C@H]3[C@@H]2C(C)C)cc1OC,
0.82,0.63 µM,COc1cc([C@H]2[C@H]3c4c(c5ccccc5[nH]c4=O)OC(C)(C)[C@H]3[C@@H]2C2CC2)cc(OC)c1OC,
0.69,3.1 µM,COc1ccc([C@@H]2[C@@H](C)[C@H]3[C@@H]2c2c(c4ccccc4[nH]c2=O)OC3(C)C)cc1OC,
0.75,0.63 µM,COc1ccc([C@H]2[C@H]3c4c(c5ccccc5[nH]c4=O)OC(C)(C)[C@H]3[C@@H]2C2CC2)cc1OC,
0.3,3.1 µM,CC[C@@H]1[C@@H](c2cc(OC)c(OC)c(OC)c2)[C@H]2c3c(c4cc(C)ccc4n(C)c3=O)OC(C)(C)[C@@H]12,
0.63,0.63 µM,COc1cc([C@H]2[C@H]3c4c(c5ccccc5[nH]c4=O)OC(C)(C)[C@H]3[C@@H]2C2CCCC2)cc(OC)c1OC,
,> 10 µM,COc1ccc2[nH]c(=O)c3c(c2c1)OC(C)(C)[C@H]1[C@H](C)[C@@H](c2cc(OC)c(OC)c(OC)c2)[C@@H]31,
0.46,3.1 µM,COc1cc(OC)cc([C@@H]2[C@@H](C)[C@H]3[C@@H]2c2c(c4ccccc4[nH]c2=O)OC3(C)C)c1,
,,COC[C@@H]1[C@@H](c2ccc(OC)c(OC)c2)[C@H]2c3c(c4ccccc4n(C)c3=O)OC(C)(C)[C@@H]12,Activity (PBMC): Non-toxic; inhibition at 50 µM [5]: 30%
1.18,0.79 µM,COc1cc([C@H]2[C@H]3c4c(c5ccccc5[nH]c4=O)OC(C)(C)[C@H]3[C@@H]2C(C)C)cc(OC)c1OC,
0.28,3.9 µM,COc1ccc([C@@H]2[C@@H](C)[C@H]3[C@@H]2c2c(c4ccccc4[nH]c2=O)OC3(C)C)cc1Br,
0.31,3.1 µM,COc1ccc([C@H]2[C@H]3c4c(c5ccccc5n(C)c4=O)OC(C)(C)[C@H]3[C@@H]2C(C)C)cc1OC(C)=O,

Intrinsic activity (Toll-like receptor 4 [1]),EC50 (Toll-like receptor 4 [2]),Compound,also measured
,,CCOC(=O)[C@@H]1[C@@H](c2ccc(Br)cc2)[C@H]2c3c(c4ccccc4[nH]c3=O)OC(C)(C)[C@@H]12,Activity (Toll-like receptor 4 [6]): inactive
0.41,7.9 µM,COc1cc([C@H]2[C@H]3c4c(c5cc(C)ccc5n(C)c4=O)OC(C)(C)[C@H]3[C@@H]2C(C)C)cc(OC)c1OC,
0.44,3.1 µM,COc1ccc([C@@H]2[C@@H](C)[C@H]3[C@@H]2c2c(c4ccccc4[nH]c2=O)OC3(C)C)c(Cl)c1OC,
0.36,3.1 µM,CC[C@@H]1[C@@H](c2ccc(OC)c(F)c2)[C@H]2c3c(c4ccccc4n(C)c3=O)OC(C)(C)[C@@H]12,
0.69,2.5 µM,COc1cc([C@H]2[C@H]3c4c(c5ccccc5n(C)c4=O)OC(C)(C)[C@H]3[C@@H]2C2CCCC2)cc(OC)c1OC,
0.88,0.79 µM,COc1ccc([C@H]2[C@H]3c4c(c5ccccc5[nH]c4=O)OC(C)(C)[C@H]3[C@@H]2C2CC2)cc1OCCCO,
,> 10 µM,COc1cc([C@@H]2[C@@H](C)[C@H]3[C@@H]2c2c(c4ccccc4[nH]c2=O)OC3(C)C)ccc1O,
1.05,0.79 µM,CC[C@@H]1[C@@H](c2cc(OC)c(OC)c(OC)c2)[C@H]2c3c(c4ccccc4[nH]c3=O)OC(C)(C)[C@@H]12,
0.81,0.79 µM,COc1cc([C@H]2[C@H]3c4c(c5ccccc5n(C)c4=O)OC(C)(C)[C@H]3[C@@H]2C2CC2)cc(OC)c1OC,
0.7,3.1 µM,CCC[C@]1(c2cc(OC)cc(OC)c2)O[C@H]2c3c(c4ccccc4[nH]c3=O)OC(C)(C)[C@H]2O1,
0.53,3.1 µM,COc1ccc([C@H]2[C@H]3c4c(c5ccccc5n(C)c4=O)OC(C)(C)[C@H]3[C@@H]2C(C)C)cc1Cl,
0.2,15.8 µM,CCC[C@]1(c2ccc(OC)c(OC)c2)O[C@H]2c3c(c4ccccc4[nH]c3=O)OC(C)(C)[C@H]2O1,
,,"COC(=O)[C@@H]1C(c2cc(OC)c(OC)c(OC)c2)[C@H]2c3c(c4ccccc4[nH]c3=O)OC(C)(C)C12 (single isomer, unassigned)",Activity (Toll-like receptor 4 [7]): inactive
,> 10 µM,COc1ccc([C@@H]2[C@@H](C)[C@H]3[C@@H]2c2c(c4ccccc4[nH]c2=O)OC3(C)C)c(OC)c1OC,
,> 10 µM,"COc1cc([C@@H]2[C@@H](C)[C@@H]3C(C)Oc4c(c(=O)[nH]c5ccccc45)[C@H]23)cc(OC)c1OC (single isomer, unassigned)",
0.1,5 µM,"COc1cc(C2[C@@H](COC(C)=O)C3[C@@H]2c2c(c4ccccc4[nH]c2=O)OC3(C)C)cc(OC)c1OC (single isomer, unassigned)",
0.19,3.9 µM,CCOc1ccc([C@H]2[C@H]3c4c(c5ccccc5[nH]c4=O)OC(C)(C)[C@H]3[C@@H]2C(C)C)cc1OC,
,,COc1cc([C@@H]2[C@@H](C)[C@H]3[C@@H]2c2c(c4ccccc4[nH]c2=O)OC3(C)C)ccc1OCc1ccccc1,Activity (Toll-like receptor 4 [8]): inactive
,> 10 µM,COc1ccc2[nH]c(=O)c3c(c2c1)OC(C)(C)[C@@H]1[C@H]3[C@H](c2ccc(OC)c(OC)c2)[C@H]1C(C)C,
,> 10 µM,COc1ccc([C@@H]2[C@@H](C)[C@H]3[C@@H]2c2c(c4ccccc4[nH]c2=O)OC3(C)C)cc1,
0.29,6.3 µM,COc1ccc([C@H]2[C@H]3c4c(c5ccccc5[nH]c4=O)OC(C)(C)[C@H]3[C@@H]2C(C)C)cc1OC(=O)CCC(=O)O,
,,COc1cc([C@@H]2C[C@H]3[C@@H]2c2c(c4ccccc4[nH]c2=O)OC3(C)C)cc(OC)c1OC,Activity (Toll-like receptor 4 [9]): inactive
,,"COc1cc(C2[C@@H](COC(C)C)C3[C@@H]2c2c(c4ccccc4[nH]c2=O)OC3(C)C)cc(OC)c1OC (single isomer, unassigned)",Activity (Toll-like receptor 4 [8]): inactive
0.61,2 µM,CC[C@@H]1[C@@H](c2ccc(OC)c(OC)c2)[C@H]2c3c(c4ccccc4n(C)c3=O)OC(C)(C)[C@@H]12,

Compound,Intrinsic activity (Toll-like receptor 4 [1]),EC50 (Toll-like receptor 4 [2]),also measured
COc1ccc([C@@H]2[C@@H](C(C)=O)[C@H]3[C@@H]2c2c(c4ccccc4[nH]c2=O)OC3(C)C)cc1OC,0.3,10 µM,
COc1ccc([C@@H]2[C@@H](C(=O)C3CC3)[C@H]3[C@@H]2c2c(c4ccccc4[nH]c2=O)OC3(C)C)cc1OC,0.62,7.9 µM,
